# Source: ChEMBL document CHEMBL1221373, “Lactarane sesquiterpenoids from Lactarius subvellereus and their cytotoxicity” (Bioorg Med Chem Lett, 2010)
# Experiments:
# Type in all cases: functional, cell-based
# HCT-15 = test: Cytotoxicity against human HCT15 cells by SRB assay
# SK-OV-3 = test: Cytotoxicity against human SKOV3 cells by SRB assay
# SK-MEL-2 = test: Cytotoxicity against human SK-MEL-2 cells by SRB assay
# A549 = test: Cytotoxicity against human A549 cells by SRB assay
smiles,measurement,setting,value
CC1(C)C[C@@H]2[C@H]([C@H]1O)[C@@](C)(O)CC1=C(C(=O)OC1)[C@H]2O [5-DESOXYLACTAROLIDE B],IC50,HCT-15,29.3 µM
same,IC50,SK-OV-3,> 30 µM
same,IC50,SK-MEL-2,> 30 µM
same,IC50,A549,17.9 µM
COc1cccc2c1C(=O)c1c(O)c3c(c(O)c1C2=O)C[C@@](O)(C(=O)CO)C[C@@H]3O[C@H]1C[C@H](N)[C@H](O)[C@H](C)O1 [DOXORUBICIN],IC50,HCT-15,0.028 µM
same,IC50,SK-OV-3,0.001 µM
same,IC50,SK-MEL-2,0.002 µM
CC1(C)C[C@H]2[C@H](O)c3cocc3C[C@](C)(O)[C@H]2C1 [FURANDIOL],IC50,HCT-15,> 30 µM
same,IC50,SK-OV-3,> 30 µM
same,IC50,SK-MEL-2,> 30 µM
same,IC50,A549,> 30 µM
CC1(C)C[C@H]2[C@H](O)C3=C(C[C@](C)(O)[C@H]2C1)C(=O)OC3O (stereo partly specified) [LACTAROLIDE A],IC50,HCT-15,28.6 µM
same,IC50,SK-OV-3,> 30 µM
same,IC50,SK-MEL-2,28.3 µM
same,IC50,A549,22.9 µM
CC1(C)C[C@H]2[C@H](O)C3=C(C[C@](C)(O)[C@H]2C1)C(=O)OC3 [LACTARORUFIN A],IC50,HCT-15,20.9 µM
same,IC50,SK-OV-3,> 30 µM
same,IC50,SK-MEL-2,> 30 µM
same,IC50,A549,27 µM
C[C@H]1CC2=C(COC2=O)C[C@@H]2[C@@H](O)[C@](C)(CO)C[C@@]21O [SUBVELLEROLACTONES B],IC50,HCT-15,14.2 µM
same,IC50,SK-OV-3,> 30 µM
same,IC50,SK-MEL-2,18.3 µM
same,IC50,A549,26.5 µM
C[C@@H]1[C@@H]2C(=CC3=C(C(=O)O[C@@H]3O)[C@@H]1O)CC(C)(C)[C@@H]2O [SUBVELLEROLACTONES D],IC50,HCT-15,17.8 µM
same,IC50,SK-OV-3,> 30 µM
same,IC50,SK-MEL-2,> 30 µM
same,IC50,A549,25.1 µM
C[C@@H]1[C@@H]2C(=CC3=C(C(=O)O[C@H]3O)[C@@H]1O)CC(C)(C)[C@@H]2O [SUBVELLEROLACTONES E],IC50,HCT-15,28.7 µM
same,IC50,SK-OV-3,> 30 µM
same,IC50,SK-MEL-2,> 30 µM
same,IC50,A549,19.6 µM
